Consider 13 compounds from ChEMBL document CHEMBL1201862, “PubChem BioAssay data set” (2004).

Some test systems named below: 786-0; HOP-92; U-251; CCRF-CEM; KM12; NCI-H23; NCI-H460; LOX IMVI; SK-MEL-28; HCT-15; A549; SNB-19; UACC-257; HL-60; SW-620; HCC 2998; CAKI-1.
Common to all, as to assay: NCI anticancer screen, dose series, 48 h

Each structure is given as a SMILES string.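 Grown in 96-well plates, cells were treated for 48 hours with each compound at five concentrations. Insufficient inhibition: endpoint recorded as highest concentration tested. Here, GI50 denotes the concentration required for 50% inhibition of growth.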 The source made the active and inactive calls. No stated cut-off is given here; in the data, active = GI50 up to about 1.1 µM and inactive = higher.

Turning to `Cn1nc(-c2cccc(-c3nn(C)/c(=N\CCO)s3)n2)s/c1=N/CCO`, the GI50 with 786-0, with HOP-92, in the test on U-251, with CCRF-CEM, in the test on KM12 and with NCI-H23 was > 100 µM (inactive) in each case. Moreover, the GI50 was > 100 µM (inactive) with NCI-H460; > 100 µM (inactive) in the test on LOX IMVI; > 100 µM (inactive) in the test with SK-MEL-28; over 100 µM with HCT-15; > 100 µM (inactive) in the test on A549; > 100 µM (inactive) in the test on SNB-19. Also, the GI50 in the test on UACC-257, in the test on HL-60 and in the test with SW-620 was > 100 µM (inactive) in each case.
`C[n+]1ccc(-c2cc[n+](C)cc2)cc1` [PARAQUAT DICHLORIDE]: the GI50 was > 100 µM (inactive) in the test on 786-0; > 44.5 µM (inactive) with HOP-92; > 32.8 µM (inactive) in the test on U-251; 14.5 µM (inactive) in the test on HCC 2998; > 48.4 µM (inactive) with CCRF-CEM; > 100 µM (inactive) in the test on CAKI-1. For the same compound, the GI50 with KM12 is 5.83 µM (inactive); with NCI-H23 it was 12.2 µM (inactive); in the test on NCI-H460, 9.42 µM (inactive); with LOX IMVI, > 22.9 µM (inactive); in the test on HCT-15, over 32.4 µM; in the test on A549, 12.1 µM (inactive). Besides, the GI50 was 4.99 µM (inactive) in the test on SNB-19, 1.5 µM (inactive) in the test on UACC-257, 10 µM (inactive) in the test on HL-60 and > 42 µM (inactive) with SW-620.
On to `O=C(CC(O)(c1ccccc1)c1ccc(Cl)cc1)NC(=O)c1ccccc1O` (centres undefined), for which the GI50 with 786-0 was 10.5 µM (inactive); in the test on HOP-92, 2.13 µM (inactive); in the test with U-251, 3.38 µM (inactive); with HCC 2998 it was 4.99 µM (inactive); with CCRF-CEM, 4.41 µM (inactive); in the test on CAKI-1, 3.95 µM (inactive). Besides, the GI50 with KM12 is 3.86 µM (inactive); in the test with NCI-H23, 6.5 µM (inactive); with NCI-H460 it was 4.37 µM (inactive); with LOX IMVI, 9.2 µM (inactive); in the test with SK-MEL-28, 19.8 µM (inactive); with HCT-15 it was 4.12 µM. In addition, the GI50 is 8.07 µM (inactive) with A549; 4.47 µM (inactive) with SNB-19; 10.3 µM (inactive) in the test on UACC-257; 4.6 µM (inactive) with HL-60; 18.7 µM (inactive) in the test on SW-620.
As to `Oc1cccc(-c2cccc(O)n2)n1`, the GI50 in the test with 786-0 is > 100 µM (inactive); in the test on HOP-92, 26.3 µM (inactive); with U-251, > 100 µM (inactive); with HCC 2998 it was > 100 µM (inactive); in the test with CCRF-CEM it was > 100 µM (inactive); in the test on CAKI-1, > 100 µM (inactive). Moreover, the GI50 in the test on KM12 is > 100 µM (inactive); with NCI-H23, > 100 µM (inactive); in the test with NCI-H460 it was > 100 µM (inactive); with LOX IMVI, > 100 µM (inactive); in the test on SK-MEL-28 it was > 100 µM (inactive); in the test with HCT-15, over 100 µM. Also, the GI50 in the test on A549, in the test on UACC-257, with HL-60 and with SW-620 was > 100 µM (inactive) in each case.
Turning to `O=C(Cc1nc2sc3c(c2c(=O)[nH]1)CCCC3)Nc1ccccc1`, the GI50 in the test with 786-0 is 71.1 µM (inactive); in the test with HOP-92 it was > 100 µM (inactive); with U-251, > 100 µM (inactive); with HCC 2998, > 100 µM (inactive); in the test on CCRF-CEM it was > 100 µM (inactive); in the test on CAKI-1, > 100 µM (inactive). Besides, the GI50 was > 100 µM (inactive) in the test on KM12; > 100 µM (inactive) in the test on NCI-H23; > 100 µM (inactive) in the test on NCI-H460; > 100 µM (inactive) in the test with LOX IMVI; > 100 µM (inactive) in the test on SK-MEL-28; over 100 µM in the test with HCT-15. Also, the GI50 is > 100 µM (inactive) with A549, 81.8 µM (inactive) with SNB-19, > 100 µM (inactive) in the test on HL-60 and > 100 µM (inactive) in the test with SW-620.
Regarding `CC(=O)OC1(Sc2ccccc2)CC2[C@H]3COC(C)(C)O[C@H]3CC[C@@]2(C)CC1=O` (some centres undefined), the GI50 is 33.7 µM (inactive) in the test on 786-0; 45.2 µM (inactive) with HOP-92; > 10 µM (inactive) in the test on U-251; 48.8 µM (inactive) in the test with CAKI-1; 43.5 µM (inactive) with KM12; 21.4 µM (inactive) in the test with NCI-H23. Also, the GI50 in the test on NCI-H460 is 64.1 µM (inactive); in the test on SK-MEL-28, > 100 µM (inactive); in the test on HCT-15, 34.9 µM; with A549, 43.2 µM (inactive); with SNB-19, 71.9 µM (inactive); with UACC-257, 49.9 µM (inactive). Moreover, in the test on SW-620, the GI50 is 52.4 µM (inactive).
As for `CCCCCCCCOCC(O)CO` (centres undefined), the GI50 with 786-0 is > 100 µM (inactive); with HOP-92, 41.8 µM (inactive); in the test on U-251, > 100 µM (inactive); with HCC 2998, 89.5 µM (inactive); with CCRF-CEM, 4.52 µM (inactive); in the test with CAKI-1 it was > 100 µM (inactive). Further, the GI50 in the test on KM12 was 29.5 µM (inactive); in the test with NCI-H23, > 100 µM (inactive); in the test with NCI-H460, > 100 µM (inactive); with LOX IMVI, > 100 µM (inactive); with SK-MEL-28, > 100 µM (inactive); in the test on HCT-15, over 100 µM. Moreover, the GI50 with A549, in the test on SNB-19, in the test on UACC-257, in the test with HL-60 and in the test on SW-620 was > 100 µM (inactive) in each case.
With `NCCCCC(=O)c1cccnc1`, the GI50 with 786-0, in the test on HOP-92, with U-251, in the test on CCRF-CEM, in the test with CAKI-1 and in the test with KM12 was > 100 µM (inactive) each time. For the same compound, the GI50 in the test with NCI-H23 is > 100 µM (inactive); in the test on NCI-H460 it was > 100 µM (inactive); in the test with LOX IMVI, > 100 µM (inactive); in the test with SK-MEL-28 it was > 100 µM (inactive); in the test on HCT-15 it was over 100 µM; in the test with A549, > 100 µM (inactive). The GI50 in the test on SNB-19, in the test on UACC-257, in the test on HL-60 and in the test with SW-620 was > 100 µM (inactive) in each case.
Regarding `COC(=O)n1c(CBr)c(Br)c2ccccc21`, the GI50 in the test with 786-0 was 45 µM (inactive); in the test on HOP-92 it was 20.1 µM (inactive); in the test on U-251, 27 µM (inactive); with HCC 2998, 32.6 µM (inactive); in the test on CCRF-CEM, 23.9 µM (inactive); in the test with CAKI-1, 23.8 µM (inactive). Further, the GI50 is 42.9 µM (inactive) with KM12; 22.7 µM (inactive) in the test on NCI-H23; 24.3 µM (inactive) in the test with NCI-H460; > 100 µM (inactive) in the test on SK-MEL-28; 42.2 µM with HCT-15; 40.5 µM (inactive) with A549. The GI50 with SNB-19 was 44.9 µM (inactive); in the test on UACC-257, 39.2 µM (inactive); in the test on HL-60, 22.4 µM (inactive); with SW-620, 47.2 µM (inactive).
Consider `C/C(=N/NS(=O)(=O)c1ccccc1)c1cccc[n+]1[O-]`, for which the GI50 with 786-0, in the test with HOP-92, with U-251, in the test on HCC 2998, in the test on CCRF-CEM and in the test with CAKI-1 was > 100 µM (inactive) each time. The GI50 with KM12 is > 100 µM (inactive); with NCI-H23, > 100 µM (inactive); in the test with NCI-H460, > 100 µM (inactive); in the test with SK-MEL-28 it was > 100 µM (inactive); with HCT-15 it was over 100 µM; with A549 it was > 100 µM (inactive). For the same compound, the GI50 with SNB-19, in the test with UACC-257, in the test on HL-60 and in the test on SW-620 was > 100 µM (inactive) each time.
As to `Cc1cc(C)c2c(c1)Nc1ccccc1P2c1ccccc1` (centres undefined), the GI50 in the test with 786-0 was 36.5 µM (inactive); in the test on HOP-92 it was 30.9 µM (inactive); in the test with U-251, 31.7 µM (inactive); in the test with HCC 2998, 26.6 µM (inactive); in the test with CAKI-1, 11 µM (inactive); with NCI-H23, 25.9 µM (inactive). Moreover, the GI50 is 22.3 µM (inactive) in the test on NCI-H460; 27.2 µM (inactive) in the test on LOX IMVI; 44.1 µM (inactive) with SK-MEL-28; 16.9 µM in the test with HCT-15; 32.1 µM (inactive) with A549; 26.7 µM (inactive) in the test on SNB-19. Further, the GI50 in the test with HL-60 was 23.9 µM (inactive); with SW-620, 39.8 µM (inactive).
In the case of `C=CCCCn1ccc2ccccc21`, the GI50 in the test with 786-0 was > 100 µM (inactive); in the test with HOP-92 it was 7.45 µM (inactive); in the test on U-251 it was > 100 µM (inactive); with HCC 2998, > 100 µM (inactive); in the test with CCRF-CEM it was > 100 µM (inactive); in the test on KM12, > 100 µM (inactive). The GI50 was > 100 µM (inactive) in the test on NCI-H23; > 100 µM (inactive) in the test on NCI-H460; > 100 µM (inactive) in the test on LOX IMVI; > 100 µM (inactive) in the test on SK-MEL-28; over 100 µM in the test with HCT-15; > 100 µM (inactive) in the test on A549. Further, the GI50 in the test on SNB-19, with UACC-257, with HL-60 and with SW-620 was > 100 µM (inactive) throughout.
`CCCCCCCCCCCCCCCCCC(=O)OCC(C[As](=O)(O)O)OC(=O)CCCCCCCCCCCCCCCCC` (centres undefined): the GI50 was 27.2 µM (inactive) with 786-0; 11.4 µM (inactive) in the test on HOP-92; 26 µM (inactive) in the test with U-251; > 100 µM (inactive) in the test with HCC 2998; 39 µM (inactive) with CCRF-CEM; 65.5 µM (inactive) with CAKI-1. Further, the GI50 is > 100 µM (inactive) with KM12; 34 µM (inactive) with NCI-H23; > 100 µM (inactive) in the test on NCI-H460; > 100 µM (inactive) in the test on SK-MEL-28; 38.4 µM in the test with HCT-15; > 100 µM (inactive) with A549. Besides, the GI50 in the test with SNB-19 was 20.2 µM (inactive); in the test on UACC-257, > 100 µM (inactive); with HL-60, > 100 µM (inactive); in the test on SW-620, 16 µM (inactive).
